Results on three compounds are retold here after paper PMC11819963, “In Vitro CO-Releasing and Antioxidant Properties of Sulfonamide-Based CAI-CORMs in a H2O2-Stimulated Human Achilles Tendon-Derived Cell Model” (Molecules, 2025).

Read-outs that look alike come from different tables or passages of the source.

The target in data set [1] is T1, hCA IX (Homo sapiens, UniProt Q16790). Further details: method as in earlier work. Conditions: alkyne precursors marked a in Table S1; cited from earlier work.
Data set [2] has as its target T2, hCA XII (Homo sapiens, UniProt O43570). Further details: method as in earlier work. Conditions: alkyne precursors marked a in Table S1; cited from earlier work.
Data set [3] has as its target T3, hCA II (Homo sapiens, UniProt P00918). Further details: method as in earlier work. The note with it: alkyne precursors marked a in Table S1; cited from earlier work.
For data set [4], the target named is hCA I (Homo sapiens, UniProt P00915). Conditions: cited from earlier work.
hCA I, sequence (P00915 whole entry): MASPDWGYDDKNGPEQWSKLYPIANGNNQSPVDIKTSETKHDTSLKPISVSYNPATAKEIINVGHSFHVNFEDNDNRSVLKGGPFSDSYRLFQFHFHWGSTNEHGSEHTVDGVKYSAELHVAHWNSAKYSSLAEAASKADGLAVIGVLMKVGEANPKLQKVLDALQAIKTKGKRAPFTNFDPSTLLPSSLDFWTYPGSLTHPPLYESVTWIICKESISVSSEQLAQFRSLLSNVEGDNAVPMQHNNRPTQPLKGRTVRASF
Data set [5] concerns Human Achilles tendon-derived tenocytes. Description: cell metabolic activity (MTT test), basal conditions. The format is cell-based. The note with it: for cell metabolic activity (MTT): 6.25–50 µM, vs untreated control.
Protocol: (§2) Human Achilles tendon-derived tenocytes (#TEN-F) were purchased by ZenBio Inc. (Durham, NC, USA) and maintained in complete alpha-MEM (EuroClone, Milan, Italy) supplemented with 10% of heat-inactivated FBS (Gibco, Thermo Fisher Scientific, Waltham, MA, USA) and 1% penicillin/streptomycin (EuroClone, Milan, Italy) at 37 °C and 5% CO2 and used from passage 3 up to passage 6.
(§3) Cells were seeded in 96-well plates (0.5 × 10^4/well) or 6-well plates (0.5 × 10^5/well) (ThermoFisher Scientific, Waltham, MA, USA) and left to adhere overnight at 37 °C and 5% CO2. For cell metabolic activity experiments (MTT test), tenocytes were treated with increasing concentrations of compounds (range 0–50 µM) for 24 and 48 h. Compounds were dissolved in DMSO to obtain a 200 mM stock solution, and they were afterwards diluted in complete alpha-MEM (DMSO final concentration = 0.1%) for further analyses. In a second set of MTT experiments, tenocytes were pre-incubated with 100 µM H2O2 for 3 h. After that, the pre-incubation medium was discarded and replaced with a fresh one containing the proper compound at increasing concentrations for 24 and 48 h. At the established time points, samples were processed for further analyses.
(§4) Tenocytes were seeded in 96 well tissue culture-treated plates (Falcon®, Corning Incorporated, Brooklyn, NY, USA) at 0.5 × 10^4 cells/well. Untreated cells (0 µM) were set as control (100% of cell metabolic activity). At the established time points, the exposure media were replaced by fresh medium containing 3-(4,5-dimethylthiazol-2-yl)-2,5-diphenyltetrazolium bromide (MTT) 0.5 mg/mL (Merck, Darmstadt, Germany) and processed as elsewhere reported [18]. The optical density in each well was measured using a spectrophotometer (Thermo Fisher Scientific, Waltham, MA, USA) at a wavelength of 540 nm. Each experiment was performed three times in triplicates per experimental condition (n = 9).
For data set [6], the target named is T1, hCA IX. Kind of data set: stopped-flow CO2 hydrase assay, hCA IX. In kind it is biochemical. Conditions: mean from three assays, errors ±5–10%. Here is the method:
(§1) The CO2 concentrations ranged from 1.7 to 17 mM for the determination of the kinetic parameters and inhibition constants. […] The uncatalysed rates were determined in the same manner and subtracted from the total observed rates. […] The inhibition constants were obtained by non-linear least-squares methods using PRISM 3 and the Cheng–Prusoff equation and represent the mean from at least three different determinations.

For data set [7], the target named is T3, hCA II. Description: stopped-flow CO2 hydrase assay, hCA II. The note with it: mean from three assays, errors ±5–10%. In kind it is biochemical. Here is the method: as §1
Data set [8] addresses T2, hCA XII. Description: stopped-flow CO2 hydrase assay, hCA XII. In kind it is biochemical. The note with it: mean from three assays, errors ±5–10%. On the procedure:
as §1

Data set [9] relates to reduced myoglobin (deoxy-Mb). Description: myoglobin carbonylation assay (CO release). Further details: species or system horse. Conditions: for CO-release profile (MbCO formed over time): 1:1 and 1:6 CORM:Mb, up to 300 min, comparison within series; for MbCO formed: after 210 min of incubation, 1:1 CORM–Mb ratio (about 20 μM CORM). On the procedure:
To determine the CO-releasing properties of the designed compounds, the myoglobin carbonylation assay was employed, with some deviations from the standard protocol, as previously reported. The analysed compounds were incubated with reduced myoglobin (deoxy-Mb), and spectra were recorded every 30 min up to 300 min. The release of CO was assessed by evaluating the formation of carbonylated myoglobin (Mb-CO) over time (Figure 3). […] The releasing properties of the compounds were also expressed as CO units released after 300 min of incubation with Mb, as reported in Figure S1 (Supplementary Information File).
All the employed reagents were of analytical grade and acquired from Merck (Milan, Italy). Gaseous CO was obtained from Rivoira (Milan, Italy). A Shimadzu UV1900 UV-Vis Spectrophotometer from 275 to 700 nm at the scanning rate of 200 nm/min was used to record UV-Vis absorption spectra in a disposable plastic cuvette (path length 0.44 cm). The second derivative spectra were generated with the Origin Lab software, and the Savitzky–Golay method was applied using 25 data points for the differentiation process. Neither an increase nor a decrease in the number of points caused changes in the wavelength or in the bandwidth. Lyophilised horse heart Mb was dissolved in phosphate-buffered saline flushed with N2 (PBS, 0.01 M, pH 7.4 to a 20–22 μM final concentration). Two millilitres of this freshly prepared stock solution were placed in a cuvette to record the UV-Vis absorption spectrum of met-Mb. Next, the solutions were divided into two halves: 10 μL of sodium dithionite (30 mg/mL) was added to the first half (reference), and the UV–Vis spectrum of deoxy-Mb was registered. After that, the solution was flushed with CO gas, and the Mb-CO spectrum was acquired. Sodium dithionite was added to the second half (sample), and a spectrum was recorded. Afterwards, a CORM DMSO solution was added to a final CORM concentration of 1.67 μM, 3.33 μM or 20 μM and gently mixed. The solution was covered with 300 μL of light mineral oil to avoid CO escaping and oxygenation of Mb, and the absorption spectrum was recorded at t = 0. Spectra were acquired every 30 min for 300 min, keeping the sample at 37 °C. When necessary, a freshly prepared sodium dithionite solution was added. After 300 min, the total Mb concentration at the end of the assay was determined by flushing the sample with CO gas. Mb-CO concentration at each time point was determined, as previously reported. Each experiment was replicated three times, and the data were expressed as mean ± SEM.

Data set [10] relates to H2O2-stimulated human Achilles tendon-derived tenocytes. Kind of data set: collagen type I secretion (ELISA). In kind it is cell-based. The note with it: 48 h, after H2O2 100 µM for 3 h, compared to untreated cells, normalised on MTT. Here is the method: Compound A and acetazolamide were administered as reference compounds.
Amounts of collagen type I secreted in supernatants harvested from 96 well plates were detected by a human collagen type 1 ELISA kit (Cosmo Bio Co., Ltd., Tokyo, Japan; cat. no. ACE-EC1-E105-EX). Samples were pipetted into suitably coated wells as described elsewhere. Each ELISA test was performed three times in duplicates per experimental condition (n = 6). The concentration of collagen type I (µg/mL) was calculated using a standard curve generated with a specific standard provided by the manufacturer by means of the Prism 5.0 software (GraphPad, San Diego, CA, USA).

Data set [11] has the same test system. Description: cell metabolic activity (MTT test), pre-incubation with H2O2. In kind it is cell-based. The note with it: 6.25–50 µM, after H2O2 100 µM for 3 h. (Tetrazolium dyes change colour on reduction, which living cells bring about.)
Protocol: as §2, §3, §4
[12] abbreviates: stopped-flow CO2 hydrase assay, cells marked a.

T2 sequence (O43570 25-354): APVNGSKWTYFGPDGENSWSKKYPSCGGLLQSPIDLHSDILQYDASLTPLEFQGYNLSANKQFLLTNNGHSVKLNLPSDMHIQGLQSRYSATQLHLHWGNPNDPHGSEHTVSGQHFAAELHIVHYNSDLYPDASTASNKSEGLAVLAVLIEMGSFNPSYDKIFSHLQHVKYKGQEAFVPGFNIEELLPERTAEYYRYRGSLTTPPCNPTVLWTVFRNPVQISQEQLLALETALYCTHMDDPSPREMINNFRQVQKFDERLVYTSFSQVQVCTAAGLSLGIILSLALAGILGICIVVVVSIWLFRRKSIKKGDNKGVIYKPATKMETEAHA

Consider `C#CCN(CC#C)c1ccc(S(N)(=O)=O)cc1` [C, 4-(diprop-2′-ynylamino)benzenesulfonamide], for which the Ki was 0.009 µM in [1], 0.0049 µM in data set [2], 1.79 µM in [3] and 6.4 µM in data set [4] (alkyne precursors marked a in Table S1).

Take `C#CCOc1ccc(S(N)(=O)=O)cc1.[C-]#[O+].[C-]#[O+].[C-]#[O+].[C-]#[O+].[C-]#[O+].[C-]#[O+].[Co].[Co]` [1b, 4-(Prop-2′-ynyloxy)benzenesulfonamide hexacarbonyldicobalt]: the “cell metabolic activity (MTT)” value in [5] (24 h exposure) is “significantly increase cell metabolic activity”. The “concentration at which cytotoxicity is seen (MTT)” value in data set [5] (48 h exposure) is on record as ≥ 25 µM. The Ki in data set [6] was 0.0054 µM; in data set [7], 0.0409 µM; in data set [4] (setting [12]), 1.34 µM; in [8] it was 0.0009 µM. Moreover, in data set [9], the “CO-release profile (MbCO formed over time)” value is “the most efficient”. In [9], the MbCO formed is 6.39 µM.

For `C#CCNc1ccc(S(N)(=O)=O)cc1.[C-]#[O+].[C-]#[O+].[C-]#[O+].[C-]#[O+].[C-]#[O+].[C-]#[O+].[Co].[Co]` [1a, 4-(prop-2-ynylamino)benzenesulfonamide hexacarbonyldicobalt], the “cell metabolic activity (MTT)” value in [5] (24 h exposure) is reported as “significantly increase cell metabolic activity”; in data set [5] (48 h exposure), “well increases cell metabolic activity at the lower concentrations”. Also, the “KI hCA IX” value in data set [6] was “ineffective”. The Ki is 0.215 µM in [7] and 0.901 µM in data set [4] (setting [12]). The “collagen type I secretion” value in [10] is reported as “dramatically increases its secretion almost three times”. Besides, the “cytotoxicity (MTT)” value in [11] (24 h exposure) is on record as “cytotoxic at the highest concentrations used”; in data set [11] (48 h exposure), “reveal cytotoxicity at the highest concentrations”. The “CO-release profile (MbCO formed over time)” value in data set [9] is “the fastest and most efficient releaser among the series”. In [9], the MbCO formed was 9.05 µM. Also, the CO units released in [9] (after 300 min of incubation with Mb, 1:6 CORM:Mb ratio (3.33 μM CORM), 37 °C) amounted to 1.6 CO units.

Broadly, the Ki is a measure of affinity in units of concentration, obtained from inhibition or displacement.
